Species: Rattus norvegicus
Test: Open TG-GATES - Regimen: Single
Type: toxicity, organism-based, Sprague-Dawley
Set-up: regimen Single, gender Male, age 6 weeks
Details: in vivo, po, 15 mg/kg, route gavage, dose level Low; for APTT / Bas / Eos / Fbg / Hb / Ht / Lym / MCH / MCHC / MCV / Mono / Neu / PT / Plat / RBC / Ret / WBC: tissue Blood; for KIDNEY_L / KIDNEY_R / KIDNEY_TOTAL: tissue Kidney; for LIVER: tissue Liver; for A/G / ALP / ALT / AST / BUN / CRE / Ca / Cl / DBIL / GLC / IP / K / LDH / Na / PL / RALB / TBIL / TC / TG / TP / gamma-GTP: tissue Plasma

Nc1nc(N)c2nc(-c3ccccc3)c(N)nc2n1
TERMINAL_BW (3 h): 213.1 g
APTT (3 h): 16.6 s
Bas (3 h): 0%
Eos (3 h): 1%
Fbg (3 h): 307 mg/dL
Hb (3 h): 14.2 g/dL
Ht (3 h): 42.9%
Lym (3 h): 78.2%
MCH (3 h): 21.5 pg
MCHC (3 h): 33%
MCV (3 h): 65.1 fL
Mono (3 h): 3.4%
Neu (3 h): 17%
PT (3 h): 14.3 s
Plat (3 h): 129.9 x10_4/uL
RBC (3 h): 659.2 x10_4/ul
Ret (3 h): 7.7%
WBC (3 h): 86.3 x10_2/uL
KIDNEY_L (3 h): 1 g
KIDNEY_R (3 h): 1 g
KIDNEY_TOTAL (3 h): 2 g
LIVER (3 h): 9.6 g
A/G (3 h): 0.9
ALP (3 h): 1340.6 IU/L
ALT (3 h): 39.8 IU/L
AST (3 h): 73.2 IU/L
BUN (3 h): 10.4 mg/dL
CRE (3 h): 0.2 mg/dL
Ca (3 h): 11 mg/dL
Cl (3 h): 105.2 meq/L
DBIL (3 h): 0.008 mg/dL
GLC (3 h): 170.2 mg/dL
IP (3 h): 8.6 mg/dL
K (3 h): 4.6 meq/L
LDH (3 h): 56.2 IU/L
Na (3 h): 141.2 meq/L
PL (3 h): 144 mg/dL
RALB (3 h): 2.7 g/dL
TBIL (3 h): 0.05 mg/dL
TC (3 h): 76.2 mg/dL
TG (3 h): 81.4 mg/dL
TP (3 h): 5.6 g/dL
gamma-GTP (3 h): 1.2 IU/L
TERMINAL_BW (6 h): 211.9 g
APTT (6 h): 16.3 s
Bas (6 h): 0.4%
Eos (6 h): 1%
Fbg (6 h): 292.4 mg/dL
Hb (6 h): 13.8 g/dL
Ht (6 h): 41.6%
Lym (6 h): 76%
MCH (6 h): 21.2 pg
MCHC (6 h): 33.2%
MCV (6 h): 63.9 fL
Mono (6 h): 2.6%
Neu (6 h): 19.6%
PT (6 h): 14.3 s
Plat (6 h): 117.9 x10_4/uL
RBC (6 h): 651.8 x10_4/ul
Ret (6 h): 7.8%
WBC (6 h): 88.3 x10_2/uL
KIDNEY_L (6 h): 1 g
KIDNEY_R (6 h): 1 g
KIDNEY_TOTAL (6 h): 1.9 g
LIVER (6 h): 9 g
A/G (6 h): 1
ALP (6 h): 1353.4 IU/L
ALT (6 h): 38.2 IU/L
AST (6 h): 72.8 IU/L
BUN (6 h): 9.2 mg/dL
CRE (6 h): 0.2 mg/dL
Ca (6 h): 10.8 mg/dL
Cl (6 h): 105.6 meq/L
DBIL (6 h): 0.008 mg/dL
GLC (6 h): 167.8 mg/dL
IP (6 h): 9.9 mg/dL
K (6 h): 4.4 meq/L
LDH (6 h): 56.4 IU/L
Na (6 h): 142.6 meq/L
PL (6 h): 138.4 mg/dL
RALB (6 h): 2.6 g/dL
TBIL (6 h): 0.062 mg/dL
TC (6 h): 77 mg/dL
TG (6 h): 49.8 mg/dL
TP (6 h): 5.4 g/dL
gamma-GTP (6 h): 1.2 IU/L
TERMINAL_BW (9 h): 206.1 g
APTT (9 h): 16.7 s
Bas (9 h): 0%
Eos (9 h): 0.8%
Fbg (9 h): 322.4 mg/dL
Hb (9 h): 14 g/dL
Ht (9 h): 42.2%
Lym (9 h): 77.6%
MCH (9 h): 21.2 pg
MCHC (9 h): 33.2%
MCV (9 h): 64 fL
Mono (9 h): 2.4%
Neu (9 h): 18.2%
PT (9 h): 13.9 s
Plat (9 h): 128.2 x10_4/uL
RBC (9 h): 659.6 x10_4/ul
Ret (9 h): 7.5%
WBC (9 h): 82.6 x10_2/uL
KIDNEY_L (9 h): 1 g
KIDNEY_R (9 h): 1 g
KIDNEY_TOTAL (9 h): 2 g
LIVER (9 h): 8.3 g
A/G (9 h): 0.9
ALP (9 h): 1426 IU/L
ALT (9 h): 39 IU/L
AST (9 h): 67.4 IU/L
BUN (9 h): 9.2 mg/dL
CRE (9 h): 0.2 mg/dL
Ca (9 h): 10.8 mg/dL
Cl (9 h): 106.2 meq/L
DBIL (9 h): 0.006 mg/dL
GLC (9 h): 163 mg/dL
IP (9 h): 9.9 mg/dL
K (9 h): 4.1 meq/L
LDH (9 h): 47.8 IU/L
Na (9 h): 143 meq/L
PL (9 h): 144 mg/dL
RALB (9 h): 2.7 g/dL
TBIL (9 h): 0.056 mg/dL
TC (9 h): 84.8 mg/dL
TG (9 h): 41.4 mg/dL
TP (9 h): 5.5 g/dL
gamma-GTP (9 h): 1.2 IU/L
TERMINAL_BW (24 h): 226.6 g
APTT (24 h): 19 s
Bas (24 h): 0%
Eos (24 h): 1%
Fbg (24 h): 289.6 mg/dL
Hb (24 h): 14 g/dL
Ht (24 h): 41.7%
Lym (24 h): 83.6%
MCH (24 h): 21.1 pg
MCHC (24 h): 33.6%
MCV (24 h): 62.7 fL
Mono (24 h): 1.6%
Neu (24 h): 12.8%
PT (24 h): 14 s
Plat (24 h): 121.6 x10_4/uL
RBC (24 h): 664.8 x10_4/ul
Ret (24 h): 6.2%
WBC (24 h): 84.7 x10_2/uL
KIDNEY_L (24 h): 1 g
KIDNEY_R (24 h): 1 g
KIDNEY_TOTAL (24 h): 2 g
LIVER (24 h): 10.5 g
A/G (24 h): 0.9
ALP (24 h): 1713.2 IU/L
ALT (24 h): 44.8 IU/L
AST (24 h): 67.4 IU/L
BUN (24 h): 15.2 mg/dL
CRE (24 h): 0.2 mg/dL
Ca (24 h): 11 mg/dL
Cl (24 h): 105.4 meq/L
DBIL (24 h): 0.012 mg/dL
GLC (24 h): 183.2 mg/dL
IP (24 h): 8.3 mg/dL
K (24 h): 4.1 meq/L
LDH (24 h): 58.4 IU/L
Na (24 h): 143.6 meq/L
PL (24 h): 153.2 mg/dL
RALB (24 h): 2.7 g/dL
TBIL (24 h): 0.044 mg/dL
TC (24 h): 79.4 mg/dL
TG (24 h): 87.8 mg/dL
TP (24 h): 5.4 g/dL
gamma-GTP (24 h): 1 IU/L
